In patent US11746100B2 (GLOBAL BLOOD THERAPEUTICS, INC., priority 2020, dated 2023):

These molecules were tested against T1, human ferroportin (Homo sapiens, UniProt Q9NP59) (assay: Biological in-vitro ferroportin internalization assay (luciferase reporter)). Details: average pEC50; stably-transfected CHO cell line expressing human ferroportin tagged to a luciferase reporter; 6 h incubation with test compound.
T1 construct: luciferase reporter (read with the Nano-Glo Luciferase Assay System); expressed in transfected cells; host or cells: CHO cells, stably transfected, expression induced with doxycycline
T1 sequence (Q9NP59 1-571): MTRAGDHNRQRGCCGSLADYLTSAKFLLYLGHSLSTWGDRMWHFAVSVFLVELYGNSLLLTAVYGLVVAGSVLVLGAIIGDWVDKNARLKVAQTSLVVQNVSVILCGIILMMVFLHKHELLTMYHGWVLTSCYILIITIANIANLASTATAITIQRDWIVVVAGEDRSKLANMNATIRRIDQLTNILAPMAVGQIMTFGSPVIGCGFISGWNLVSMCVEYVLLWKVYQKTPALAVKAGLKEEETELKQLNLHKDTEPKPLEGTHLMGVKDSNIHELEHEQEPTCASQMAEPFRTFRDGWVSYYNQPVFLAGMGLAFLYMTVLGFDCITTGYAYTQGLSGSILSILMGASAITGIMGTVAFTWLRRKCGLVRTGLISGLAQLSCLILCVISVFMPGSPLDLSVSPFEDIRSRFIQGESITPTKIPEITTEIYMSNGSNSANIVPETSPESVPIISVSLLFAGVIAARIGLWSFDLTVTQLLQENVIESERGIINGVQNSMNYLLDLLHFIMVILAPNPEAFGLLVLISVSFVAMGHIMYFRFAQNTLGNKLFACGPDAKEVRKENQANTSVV
Type: cell-based
Summary of the method: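 Read-out is Nano-Glo luciferase signal after 6 h compound exposure, with average pEC50 derived. Cells are a stable CHO line carrying luciferase-tagged human ferroportin, pre-loaded 24 h with ferric ammonium citrate and doxycycline-induced for 24 h.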

pEC50 | SMILES
5.5 | CN1CCCN(c2nc(-c3ccccn3)nc3c2CCC3)CC1 [Compound 85, 1-methyl-4-[2-(pyridin-2-yl)-5H,6H,7H-cyclopenta[d]pyrimidin-4-yl]-1,4-diazepane]
6.8 | CN(CC(=O)N1CCOCC1)c1nc(-c2ccccn2)nc2c1CCC2 [Compound 86, 2-{methyl[2-(pyridin-2-yl)-5H,6H,7H-cyclopenta[d]pyrimidin-4-yl]amino}-1-(morpholin-4-yl)ethan-1-one]
6.6 | CN(CCOc1ccccc1)c1nc(-c2ccccn2)nc2c1CCC2 [Compound 87, N-methyl-N-(2-phenoxyethyl)-2-(pyridin-2-yl)-5H,6H,7H-cyclopenta[d]pyrimidin-4-amine]
7.1 | CN(CC(=O)N1CCCCC1)c1nc(-c2ccccn2)nc2c1CCC2 [Compound 88, 2-{methyl[2-(pyridin-2-yl)-5H,6H,7H-cyclopenta[d]pyrimidin-4-yl]amino}-1-(piperidin-1-yl)ethan-1-one]
7.3 | CN(CC(=O)NC(C)(C)C)c1nc(-c2ccccn2)nc2c1CCC2 [Compound 89, N-tert-butyl-2-{methyl[2-(pyridin-2-yl)-5H,6H,7H-cyclopenta[d]pyrimidin-4-yl]amino}acetamide]
7.4 | CC(C(=O)NC(C)(C)C)N(C)c1nc(-c2ccccn2)nc2c1CCC2 (stereo not drawn) [Compound 90, N-tert-butyl-2-{methyl[2-(pyridin-2-yl)-5H,6H,7H-cyclopenta[d]pyrimidin-4-yl]amino}propanamide]
7.3 | CC(C(=O)NC1CCCCC1)N(C)c1nc(-c2ccccn2)nc2c1CCC2 (stereo not drawn) [Compound 91, N-cyclohexyl-2-{methyl[2-(pyridin-2-yl)-5H,6H,7H-cyclopenta[d]pyrimidin-4-yl]amino}propanamide]
6.5 | c1ccc(-c2nc3c(c(N4CCCCCC4)n2)CCC3)nc1 [Compound 92, 1-[2-(pyridin-2-yl)-5H,6H,7H-cyclopenta[d]pyrimidin-4-yl]azepane]
6.1 | c1ccc(-c2nc3c(c(N4CCCOCC4)n2)CCC3)nc1 [Compound 93, 4-[2-(pyridin-2-yl)-5H,6H,7H-cyclopenta[d]pyrimidin-4-yl]-1,4-oxazepane]
6.3 | c1nc(-c2nc3c(c(N4CCCCCC4)n2)CCC3)cs1 [Compound 94, 1-[2-(1,3-thiazol-4-yl)-5H,6H,7H-cyclopenta[d]pyrimidin-4-yl]azepane]
7.3 | CN(c1nc(-c2ccccn2)nc2c1CCC2)C1CCN(c2ccccc2)C1=O (stereo not drawn) [Compound 95, 3-{methyl[2-(pyridin-2-yl)-5H,6H,7H-cyclopenta[d]pyrimidin-4-yl]amino}-1-phenylpyrrolidin-2-one]
6.6 | Clc1ccnc(-c2nc3c(c(N4CCCCCC4)n2)CCC3)c1 [Compound 96, 1-[2-(4-chloropyridin-2-yl)-5H,6H,7H-cyclopenta[d]pyrimidin-4-yl]azepane]
7.1 | Cn1cnc(-c2nc3c(c(N4CCCCCC4)n2)CCC3)c1 [Compound 97, 1-[2-(1-methyl-1H-imidazol-4-yl)-5H,6H,7H-cyclopenta[d]pyrimidin-4-yl]azepane]
7 | CN(CC(=O)NC1(C(F)(F)F)CC1)c1nc(-c2ccccn2)nc2c1CCC2 [Compound 98, 2-{methyl[2-(pyridin-2-yl)-5H,6H,7H-cyclopenta[d]pyrimidin-4-yl]amino}-N-[1-(trifluoromethyl)cyclopropyl]acetamide]
7.3 | COc1ccnc(-c2nc3c(c(N(C)CC(=O)NC4(C(F)(F)F)CC4)n2)CCC3)c1 [Compound 99, 2-{[2-(4-methoxypyridin-2-yl)-5H,6H,7H-cyclopenta[d]pyrimidin-4-yl](methyl)amino}-N-[1-(trifluoromethyl)cyclopropyl]acetamide]
7.5 | CCc1ccnc(-c2nc3c(c(N(C)CC(=O)NC(C)(C)C)n2)CCC3)c1 [Compound 100, N-tert-butyl-2-{[2-(4-ethylpyridin-2-yl)-5H,6H,7H-cyclopenta[d]pyrimidin-4-yl](methyl)amino}acetamide]
8.2 | COc1ccnc(-c2nc3c(c(N(C)[C@H](C)C(=O)NC(C)(C)C)n2)CCC3)c1 [Compound 101, (2R)—N-tert-butyl-2-{[2-(4-methoxypyridin-2-yl)-5H,6H,7H-cyclopenta[d]pyrimidin-4-yl](methyl)amino}propanamide]

pEC50 | SMILES
7.1 | CN(C)c1ccnc(-c2nc3c(c(N(C)CC(=O)NC(C)(C)C)n2)CCC3)c1 [Compound 102, N-tert-butyl-2-({2-[4-(dimethylamino)pyridin-2-yl]-5H,6H,7H-cyclopenta[d]pyrimidin-4-yl}(methyl)amino)acetamide]
6.4 | Cc1cccnc1-c1nc2c(c(N(C)CC(=O)NC(C)(C)C)n1)CCC2 [Compound 103, N-tert-butyl-2-{methyl[2-(3-methylpyridin-2-yl)-5H,6H,7H-cyclopenta[d]pyrimidin-4-yl]amino}acetamide]
7.2 | Cc1ccc(-c2nc3c(c(N(C)CC(=O)NC(C)(C)C)n2)CCC3)nc1 [Compound 104, N-tert-butyl-2-{methyl[2-(5-methylpyridin-2-yl)-5H,6H,7H-cyclopenta[d]pyrimidin-4-yl]amino}acetamide]
7.7 | Cc1ccnc(-c2nc3c(c(N(C)CC(=O)NC4(C)CCCC4)n2)CCC3)c1 [Compound 105, 2-{methyl[2-(4-methylpyridin-2-yl)-5H,6H,7H-cyclopenta[d]pyrimidin-4-yl]amino}-N-(1-methylcyclopentyl)acetamide]
5.7 | CN(CC(=O)NC(C)(C)C)c1nc(-c2ncc(CCO)s2)nc2c1CCC2 [Compound 107, N-tert-butyl-2-({2-[5-(2-hydroxyethyl)-1,3-thiazol-2-yl]-5H,6H,7H-cyclopenta[d]pyrimidin-4-yl}(methyl)amino)acetamide]
7.6 | C[C@H](C(=O)NC1CCCCC1)N(C)c1nc(-c2ccccn2)nc2c1CCC2 [Compound 108, (2R)—N-cyclohexyl-2-{methyl[2-(pyridin-2-yl)-5H,6H,7H-cyclopenta[d]pyrimidin-4-yl]amino}propanamide]
7 | C[C@H](C(=O)NC1CC(F)(F)C1)N(C)c1nc(-c2ccccn2)nc2c1CCC2 [Compound 109, (2R)—N-(3,3-difluorocyclobutyl)-2-{methyl[2-(pyridin-2-yl)-5H,6H,7H-cyclopenta[d]pyrimidin-4-yl]amino}propanamide]
7.9 | CN(CC(=O)NC(C)(C)C)c1nc(-c2cc3cn[nH]c3cn2)nc2c1CCC2 [Compound 110, N-tert-butyl-2-[methyl(2-{1H-pyrazolo[3,4-c]pyridin-5-yl}-5H,6H,7H-cyclopenta[d]pyrimidin-4-yl)amino]acetamide]
7.2 | CN(CC(=O)NC1(C(F)(F)F)CC1)c1nc(-c2cn(C)cn2)nc2c1CCC2 [Compound 111, 2-{methyl[2-(1-methyl-1H-imidazol-4-yl)-5H,6H,7H-cyclopenta[d]pyrimidin-4-yl]amino}-N-[1-(trifluoromethyl)cyclopropyl]acetamide]
8 | C[C@H](C(=O)NC(C)(C)C)N(C)c1nc(-c2cn(C)cn2)nc2c1CCC2 [Compound 112, (2R)—N-tert-butyl-2-{methyl[2-(1-methyl-1H-imidazol-4-yl)-5H,6H,7H-cyclopenta[d]pyrimidin-4-yl]amino}propanamide]
7.7 | CN(CC(=O)NC(C)(C)C)c1nc(-c2cc(CCO)ccn2)nc2c1CCC2 [Compound 113, N-tert-butyl-2-({2-[4-(2-hydroxyethyl)pyridin-2-yl]-5H,6H,7H-cyclopenta[d]pyrimidin-4-yl}(methyl)amino)acetamide]
7.6 | CC(C)[C@H](C(=O)NC(C)(C)C)N(C)c1nc(-c2ccccn2)nc2c1CCC2 [Compound 114, (2R)—N-tert-butyl-3-methyl-2-{methyl[2-(pyridin-2-yl)-5H,6H,7H-cyclopenta[d]pyrimidin-4-yl]amino}butanamide]
7.1 | CC(C)[C@@H](C(=O)NC(C)(C)C)N(C)c1nc(-c2ccccn2)nc2c1CCC2 [Compound 115, (2S)—N-tert-butyl-3-methyl-2-{methyl[2-(pyridin-2-yl)-5H,6H,7H-cyclopenta[d]pyrimidin-4-yl]amino}butanamide]
7.4 | CSCC[C@H](C(=O)NC(C)(C)C)N(C)c1nc(-c2ccccn2)nc2c1CCC2 [Compound 116, (2R)—N-tert-butyl-2-{methyl[2-(pyridin-2-yl)-5H,6H,7H-cyclopenta[d]pyrimidin-4-yl]amino}-4-(methylsulfanyl)butanamide]
6.9 | CSCC[C@@H](C(=O)NC(C)(C)C)N(C)c1nc(-c2ccccn2)nc2c1CCC2 [Compound 117]
7.8 | C[C@H](C(=O)NC1CCCCC1)N(C)c1nc(-c2cn(C)cn2)nc2c1CCC2 [Compound 118, (2R)—N-cyclohexyl-2-{methyl[2-(1-methyl-1H-imidazol-4-yl)-5H,6H,7H-cyclopenta[d]pyrimidin-4-yl]amino}propanamide]
